Measurements as given in US11497212B2, “Substituted thiophenyl uracils, salts thereof and the use thereof as herbicidal agents” (Syngenta Crop Protection AG, priority 2017, dated 2022).

Key:
Assay type in all cases: in vivo
[1] = test system: Echinochloa crus-galli; test: Herbicidal action post-emergence (greenhouse pot trial); settings: application rate 20 g/ha, scored visually after about 3 weeks vs untreated controls
Method: (§1) Seeds of mono- and dicotyledonous weed plants and crop plants are laid out in sandy loam soil in plastic or wood-fiber pots, covered with earth and grown under controlled growth conditions in a greenhouse. 2 to 3 weeks after sowing, the trial plants are treated at the one-leaf stage. The compounds of the invention formulated in the form of wettable powders (WP) or emulsion concentrates (EC) were then sprayed onto the green parts of the plant as an aqueous suspension or emulsion with addition of 0.5% additive at a water application rate equivalent to 600 L/ha. After the trial plants had stood for about 3 weeks in the greenhouse, under optimal growth conditions, the effect of the preparations was scored visually by comparison with untreated controls. For example, 100% efficacy=plants have died, 0% efficacy=like control plants. Tables A1 to A15 below show the efficacies of selected compounds of the general formula (I) according to tables I.1 to I.60 on various harmful plants and an application rate corresponding to 80 g/ha or lower that were obtained by the aforementioned trial method.

[2] = test system: Digitaria sanguinalis; test: as above; settings: application rate 20 g/ha
Method: as §1

[3] = test system: Viola tricolor; test: as above; settings: application rate 20 g/ha
Method: as §1

[4] = test system: Amaranthus retroflexus; test: as above; settings: application rate 20 g/ha, scored visually after about 3 weeks vs untreated controls
Method: as §1

[5] = test system: Matricaria inodora; test: as above; settings: application rate 20 g/ha, scored visually after about 3 weeks vs untreated controls
Method: as §1

[6] = test system: Pharbitis purpurea; test: as above; settings: application rate 20 g/ha
Method: as §1

[7] = test system: Abutilon theophrasti; test: as above; settings: application rate 20 g/ha, scored visually after about 3 weeks vs untreated controls
Method: as §1

[8] = test system: Stellaria media; test: as above; settings: application rate 20 g/ha, scored visually after about 3 weeks vs untreated controls
Method: as §1

[9] = test system: Setaria viridis; test: as above; settings: application rate 20 g/ha, scored visually after about 3 weeks vs untreated controls
Method: as §1

[10] = test system: Polygonum convolvulus; test: as above; settings: application rate 20 g/ha, scored visually after about 3 weeks vs untreated controls
Method: as §1

[11] = test system: Veronica persica; test: as above; settings: application rate 20 g/ha
Method: as §1

[12] = test system: Oryza sativa; test: Crop compatibility post-emergence (greenhouse pot trial)
Method: as §1, with “plants.” for “plants. Tables A1 to A15 below show the efficacies of selected compounds of the general formula (I) according to tables I.1 to I.60 on various harmful plants and an application rate corresponding to 80 g/ha or lower that were obtained by the aforementioned trial method.”
(§2) Crop plant compatibilities were also scored correspondingly.
(§3) The effects observed are reported here on selected crop plants by comparison with the untreated controls (values in %).

[13] = test system: Triticum aestivum; test: as above
Method: as §1, with “plants.” for “plants. Tables A1 to A15 below show the efficacies of selected compounds of the general formula (I) according to tables I.1 to I.60 on various harmful plants and an application rate corresponding to 80 g/ha or lower that were obtained by the aforementioned trial method.”
as §2, §3

Row | Compound | Oryza sativa (Efficacy in %) ([12]; application rate 5 g/ha) | Triticum aestivum (Efficacy in %) ([13]; application rate 20 g/ha) | Oryza sativa (Efficacy in %) ([12]; application rate 20 g/ha) | Triticum aestivum (Efficacy in %) ([13]; application rate 5 g/ha) | Echinochloa crus-galli (Efficacy in %) [1] | Digitaria sanguinalis (Efficacy in %) [2] | Viola tricolor (Efficacy in %) [3] | Amaranthus retroflexus (Efficacy in %) [4] | Matricaria inodora (Efficacy in %) [5] | Pharbitis purpurea (Efficacy in %) [6] | Abutilon theophrasti (Efficacy in %) [7] | Stellaria media (Efficacy in %) [8] | Setaria viridis (Efficacy in %) [9] | Polygonum convolvulus (Efficacy in %) [10] | Veronica persica (Efficacy in %) [11]
1 | CC(Sc1cc(-n2c(=O)cc(C(F)(F)F)n(C)c2=O)c(F)cc1Cl)C(=O)OCCOCc1ccccc1 (centres unmarked) [I.1-6] | 0% | – | – | – | 90% | 100% | 100% | 100% | 100% | 100% | 100% | 90% | 100% | 100% | 100%
2 | CC(Sc1cc(-n2c(=O)cc(C(F)(F)F)n(C)c2=O)c(F)cc1Cl)C(=O)OCCOC(F)(F)F (centres unmarked) [I.1-41] | – | 20% | – | – | 100% | 100% | 100% | 100% | 90% | 100% | 100% | – | 100% | 100% | 100%
3 | CC(Sc1cc(-n2c(=O)cc(C(F)(F)F)n(C)c2=O)c(F)cc1Cl)C(=O)OC1CCSC1 (centres unmarked) [I.1-123] | – | 20% | – | – | 100% | 80% | 100% | 100% | 100% | 100% | 100% | 100% | 100% | 100% | 100%
4 | CC(Sc1cc(-n2c(=O)cc(C(F)(F)F)n(C)c2=O)c(F)cc1Cl)C(=O)NCC1CCCCO1 (centres unmarked) [I.1-241] | – | – | 10% | 20% | – | 100% | 100% | 100% | 100% | – | 100% | 100% | 100% | 100% | 100%
5 | CC(Sc1cc(-n2c(=O)cc(C(F)(F)F)n(C)c2=O)c(F)cc1Cl)C(=O)NC1CCCOC1 (centres unmarked) [I.1-276] | 10% | – | – | – | – | – | 100% | 100% | 100% | – | 100% | 100% | 100% | 100% | 100%
6 | CCC(Sc1cc(-n2c(=O)cc(C(F)(F)F)n(C)c2=O)c(F)cc1Cl)C(=O)OCC1COC(C)C1 (centres unmarked) [I.2-73] | – | – | 10% | – | – | – | 100% | 100% | 100% | – | 100% | 100% | 90% | 100% | 100%
7 | CCC(Sc1cc(-n2c(=O)cc(C(F)(F)F)n(C)c2=O)c(F)cc1Cl)C(=O)OCC1CCCS1 (centres unmarked) [I.2-81] | – | 20% | – | – | 100% | 100% | 100% | 100% | 100% | 100% | 100% | 100% | 100% | 100% | 100%

Further lines, with some results ahead:

Row | Oryza sativa (Efficacy in %) ([12]; application rate 5 g/ha) | Triticum aestivum (Efficacy in %) ([13]; application rate 20 g/ha) | Oryza sativa (Efficacy in %) ([12]; application rate 20 g/ha) | Triticum aestivum (Efficacy in %) ([13]; application rate 5 g/ha) | Compound | Echinochloa crus-galli (Efficacy in %) [1] | Digitaria sanguinalis (Efficacy in %) [2] | Viola tricolor (Efficacy in %) [3] | Amaranthus retroflexus (Efficacy in %) [4] | Matricaria inodora (Efficacy in %) [5] | Pharbitis purpurea (Efficacy in %) [6] | Abutilon theophrasti (Efficacy in %) [7] | Stellaria media (Efficacy in %) [8] | Setaria viridis (Efficacy in %) [9] | Polygonum convolvulus (Efficacy in %) [10] | Veronica persica (Efficacy in %) [11]
8 | – | 10% | – | – | CCC(C)C(Sc1cc(-n2c(=O)cc(C(F)(F)F)n(C)c2=O)c(F)cc1Cl)C(=O)OCC1CCCO1 (centres unmarked) [I.5-71] | 90% | 100% | 100% | 100% | 100% | 100% | 100% | 80% | 90% | 100% | 100%
9 | – | 20% | – | – | CCC(C)C(Sc1cc(-n2c(=O)cc(C(F)(F)F)n(C)c2=O)c(F)cc1Cl)C(=O)OCC1CCOC1 (centres unmarked) [I.5-72] | 90% | 100% | 100% | 100% | 90% | 100% | 100% | – | 80% | 90% | 100%
10 | – | 10% | – | – | CCC(C)C(Sc1cc(-n2c(=O)cc(C(F)(F)F)n(C)c2=O)c(F)cc1Cl)C(=O)OCC1CCCCO1 (centres unmarked) [I.5-91] | 80% | – | 100% | 100% | 90% | 100% | 100% | – | 90% | 90% | 100%
11 | – | – | – | 20% | CC(C)C(Sc1cc(-n2c(=O)cc(C(F)(F)F)n(C)c2=O)c(F)cc1Cl)C(=O)OCC1CCOC1 (centres unmarked) [I.6-72] | 80% | 100% | 100% | 100% | 100% | 100% | 100% | 90% | 90% | 100% | 100%
12 | – | 20% | – | – | CC(C)=C(Sc1cc(-n2c(=O)cc(C(F)(F)F)n(C)c2=O)c(F)cc1Cl)C(=O)OCC1CCOC1 (centres unmarked) [I.42-72] | 90% | 100% | 100% | 100% | 100% | 100% | 100% | 90% | 100% | 100% | 100%
13 | – | 20% | – | – | Cn1c(C(F)(F)F)cc(=O)n(-c2cc(SCC(C)(C)C(=O)OCC3CCCS3)c(Cl)cc2F)c1=O (centres unmarked) [I.48-81] | 90% | 100% | 100% | 100% | 100% | 100% | 100% | 100% | – | 100% | 100%
14 | – | – | – | 20% | Cn1c(C(F)(F)F)cc(=O)n(-c2cc(SCC(C)(C)C(=O)OCC3CCCCO3)c(Cl)cc2F)c1=O (centres unmarked) [I.48-91] | 100% | 100% | 100% | 100% | 100% | 100% | 100% | 100% | – | 100% | 100%
15 | – | 0% | 0% | – | Cc1c(C(F)(F)F)n(C)c(=O)n(-c2cc(SCC(C)(C)C(=O)NCC3CCCCO3)c(Cl)cc2F)c1=O (centres unmarked) [I.54-241] | – | 80% | – | 100% | – | – | 100% | 80% | 100% | 100% | 100%
